Laboratory results: patent US8575201B2 (Boehringer Ingelheim International GmbH, priority 2010, dated 2013)

Columns and labels:
[1] = test system: synthesis of LTB4 in human whole blood; assay: Human whole blood LTB4 production inhibition assay; assay type: cell-based; conditions: calcimycin stimulated, read-out: hWB LTB4 IC50
Procedure: Compounds are additionally tested in a human whole blood assay to determine their ability to inhibit the synthesis of LTB4 in a cellular system. Compounds are combined with heparinized human whole blood and incubated for 15 minutes at 37° C. Calcimycin (20 μM final, prepared in phosphate-buffered saline, pH 7.4) is then added and the mixture is incubated for another 30 minutes at 37° C. The samples are centrifuged for 5 min at low speed (1500×g) and the plasma layer is removed. Plasma LTB4 concentrations are then measured using an antibody-based homogenous time-resolved fluorescence method (CisBio, Bedford, Mass.).

[2] = biological target: recombinant human FLAP protein (Homo sapiens (Human), UniProt P20292); assay: FLAP binding assay (Scintillation Proximity Assay, displacement of [125I]L-691,831); conditions: read-out: FLAP SPA IC50
Procedure: Assessment of Biological Properties 1. Binding Assay: Compounds are assessed for the ability to bind to FLAP in a binding assay that measures compound-specific displacement of an iodinated (^125I) FLAP inhibitor via a Scintillation Proximity Assay format (adapted from S. Charleson et al., Mol. Pharmacol., 1992, 41, 873-879). […] The cells are lysed with a Dounce homogenizer and the material is centrifuged at 10,000×g for 10 minutes. The supernatant is then collected and centrifuged at 100,000×g for 60 minutes. To prepare membrane protein for an assay, an aliquot of the 100,000×g pellet is resuspended in 1 ml of buffer A, Dounce homogenized, and finally subjected to polytron mixing (30 seconds). […] Mol. Pharmacol., 41, 873-879, 1992) and finally 50 μl of the bead/protein mixture. (final concentrations: beads, 200 μg/well; protein, 5 μg/well; […] The plates are shaken for 2 h before reading on a Microbeta plate reader.

Chain of recombinant human FLAP protein (P20292 whole entry): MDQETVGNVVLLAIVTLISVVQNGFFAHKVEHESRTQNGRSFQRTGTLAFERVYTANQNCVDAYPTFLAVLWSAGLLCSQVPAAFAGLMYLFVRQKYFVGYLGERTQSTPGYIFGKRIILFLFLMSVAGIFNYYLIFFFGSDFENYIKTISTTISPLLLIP

Row | IC50 [1] [µM] | IC50 [2] [µM] | SMILES
1 | 0.11 | 0.0024 | C[C@H](O)CNc1ccc(-c2nc(C3(c4ccc(-c5cnc(N)nc5)nc4)CCC3)no2)cn1 [Example 46, (2S)-1-{[5-(3-{1-[6-(2-aminopyrimidin-5-yl)pyridin-3-yl]cyclobutyl}-1,2,4-oxadiazol-5-yl)pyridin-2-yl]amino}propan-2-ol]
2 | 0.19 | 0.0088 | CCn1cc(-c2nc(C3(c4ccc(-c5cnc(N)nc5)nc4)CCC3)no2)cn1 [Example 63, 5-(5-{1-[5-(1-ethyl-1H-pyrazol-4-yl)-1,2,4-oxadiazol-3-yl]cyclobutyl}pyridin-2-yl)pyrimidin-2-amine]
3 | 0.17 | 0.0072 | CC(C)n1cc(-c2nc(C3(c4ccc(-c5cnc(N)nc5)nc4)CCC3)no2)cn1 [Example 64, 5-[5-(1-{5-[1-(propan-2-yl)-1H-pyrazol-4-yl]-1,2,4-oxadiazol-3-yl}cyclobutyl)pyridin-2-yl]pyrimidin-2-amine]
4 | 0.2 | 0.0074 | Nc1ncc(-c2ccc(C3(c4noc(-c5cnn(C(F)F)c5)n4)CCC3)cn2)cn1 [Example 66, 5-[5-(1-{5-[1-(difluoromethyl)-1H-pyrazol-4-yl]-1,2,4-oxadiazol-3-yl}cyclobutyl)pyridin-2-yl]pyrimidin-2-amine]
5 | 0.069 | 0.0095 | Nc1ncc(-c2ccc(C3(c4noc(-c5cnn(CCF)c5)n4)CCC3)cn2)cn1 [Example 67, 5-[5-(1-{5-[1-(2-fluoroethyl)-1H-pyrazol-4-yl]-1,2,4-oxadiazol-3-yl}cyclobutyl)pyridin-2-yl]pyrimidin-2-amine]
6 | 0.16 | 0.0061 | Nc1ncc(-c2ccc(C3(c4noc(-c5cnn(CC(F)F)c5)n4)CCC3)cn2)cn1 [Example 68, 5-[5-(1-{5-[1-(2,2-difluoroethyl)-1H-pyrazol-4-yl]-1,2,4-oxadiazol-3-yl}cyclobutyl)pyridin-2-yl]pyrimidin-2-amine]
7 | 2.1 | 0.15 | NC(=O)Cn1cc(-c2nc(C3(c4ccc(-c5cnc(N)nc5)nc4)CCC3)no2)cn1 [Example 70, 2-[4-(3-{1-[6-(2-aminopyrimidin-5-yl)pyridin-3-yl]cyclobutyl}-1,2,4-oxadiazol-5-yl)-1H-pyrazol-1-yl]acetamide]
8 | 2.3 | 0.61 | Nc1ncc(-c2ccc(C3(c4noc(-c5cccnc5)n4)CCOCC3)cn2)cn1 [Example 72, 5-(5-{4-[5-(pyridin-3-yl)-1,2,4-oxadiazol-3-yl]tetrahydro-2H-pyran-4-yl}pyridin-2-yl)pyrimidin-2-amine]
9 | 0.46 | 0.025 | Nc1ncc(-c2ccc(C3(c4noc(-c5cccnc5)n4)CCC3)cn2)cn1 [Example 73, 5-{5-[1-(5-Pyridin-3-yl-1,2,4-oxadiazol-3-yl)-cyclobutyl]-pyridin-2-yl}-pyrimidin-2-ylamine]
10 | 0.21 | 0.0045 | Cc1ccc(-c2nc(C3(c4ccc(-c5cnc(N)nc5)nc4)CCC3)no2)cn1 [Example 74, 5-(5-{1-[5-(6-methylpyridin-3-yl)-1,2,4-oxadiazol-3-yl]cyclobutyl}pyridin-2-yl)pyrimidin-2-amine]
11 | 0.58 | 0.019 | Nc1ncc(-c2ccc(C3(c4noc(-c5c[nH]cn5)n4)CCC3)cn2)cn1 [Example 75, 5-(5-{1-[5-(1H-imidazol-4-yl)-1,2,4-oxadiazol-3-yl]cyclobutyl}pyridin-2-yl)pyrimidin-2-amine]

The next lines start with the molecule.

Row | SMILES | IC50 [1] [µM] | IC50 [2] [µM]
12 | CCOC(=O)CCN1CCN(c2ccc(-c3nc(C4(c5ccc(-c6cnc(N)nc6)nc5)CCC4)no3)cn2)CC1 [Example 47, ethyl 3-{4-[5-(3-{1-[6-(2-aminopyrimidin-5-yl)pyridin-3-yl]cyclobutyl}-1,2,4-oxadiazol-5-yl)pyridin-2-yl]piperazin-1-yl}propanoate] | 0.17 | 0.0034
13 | Nc1ncc(-c2ccc(C3(c4noc(-c5ccc(N6CC[C@H](O)C6)nc5)n4)CCC3)cn2)cn1 [Example 48, (3S)-1-[5-(3-{1-[6-(2-aminopyrimidin-5-yl)pyridin-3-yl]cyclobutyl}-1,2,4-oxadiazol-5-yl)pyridin-2-yl]pyrrolidin-3-ol] | 0.14 | 0.0022
14 | Nc1ncc(-c2ccc(C3(c4noc(-c5ccc(N6CCS(=O)(=O)CC6)nc5)n4)CCC3)cn2)cn1 [Example 49, 5-[5-(1-{5-[6-(1,1-dioxidothiomorpholin-4-yl)pyridin-3-yl]-1,2,4-oxadiazol-3-yl}cyclobutyl)pyridin-2-yl]pyrimidin-2-amine] | 0.18 | 0.0037
15 | CS(=O)(=O)N1CCN(c2ccc(-c3nc(C4(c5ccc(-c6cnc(N)nc6)nc5)CCC4)no3)cn2)CC1 [Example 50, 5-{5-[1-(5-{6-[4-(methylsulfonyl)piperazin-1-yl]pyridin-3-yl}-1,2,4-oxadiazol-3-yl)cyclobutyl]pyridin-2-yl}pyrimidin-2-amine] | 0.15 | 0.0027
16 | CS(=O)(=O)CCNc1ccc(-c2nc(C3(c4ccc(-c5cnc(N)nc5)nc4)CCC3)no2)cn1 [Example 51, 5-(5-{1-[5-(6-{[2-(methylsulfonyl)ethyl]amino}pyridin-3-yl)-1,2,4-oxadiazol-3-yl]cyclobutyl}pyridin-2-yl)pyrimidin-2-amine] | 0.15 | 0.0048
17 | CS(=O)(=O)C1CCN(c2ccc(-c3nc(C4(c5ccc(-c6cnc(N)nc6)nc5)CCC4)no3)cn2)C1 (stereo not drawn) [Example 52, 5-{5-[1-(5-{6-[3-(methylsulfonyl)pyrrolidin-1-yl]pyridin-3-yl}-1,2,4-oxadiazol-3-yl)cyclobutyl]pyridin-2-yl}pyrimidin-2-amine] | 0.18 | 0.0026
18 | Nc1ncc(-c2ccc(C3(c4noc(-c5ccc(N6CCN(CCC(=O)O)CC6)nc5)n4)CCC3)cn2)cn1 [Example 53, 3-{4-[5-(3-{1-[6-(2-aminopyrimidin-5-yl)pyridin-3-yl]cyclobutyl}-1,2,4-oxadiazol-5-yl)pyridin-2-yl]piperazin-1-yl}propanoic acid] | 2.6 | 0.0026
19 | CC(C)(O)Cn1cc(-c2nc(C3(c4ccc(-c5cnc(N)nc5)nc4)CCC3)no2)cn1 [Example 54, 1-[4-(3-{1-[6-(2-aminopyrimidin-5-yl)pyridin-3-yl]cyclobutyl}-1,2,4-oxadiazol-5-yl)-1H-pyrazol-1-yl]-2-methylpropan-2-ol] | 0.12 | 0.028
20 | Nc1ncc(-c2ccc(C3(c4noc(-c5cnn(C6COC6)c5)n4)CCC3)cn2)cn1 [Example 55, 5-[5-(1-{5-[1-(oxetan-3-yl)-1H-pyrazol-4-yl]-1,2,4-oxadiazol-3-yl}-cyclobutyl)pyridin-2-yl]pyrimidin-2-amine] | 0.052 | 0.013
21 | CNC(=O)Cn1cc(-c2nc(C3(c4ccc(-c5cnc(N)nc5)nc4)CCC3)no2)cn1 [Example 58, 2-[4-(3-{1-[6-(2-aminopyrimidin-5-yl)pyridin-3-yl]cyclobutyl}-1,2,4-oxadiazol-5-yl)-1H-pyrazol-1-yl]-N-methylacetamide] | 0.25 | 0.022
22 | CN(C)C(=O)Cn1cc(-c2nc(C3(c4ccc(-c5cnc(N)nc5)nc4)CCC3)no2)cn1 [Example 59, 2-[4-(3-{1-[6-(2-amino-pyrimidin-5-yl)-pyridin-3-yl]-cyclobutyl}-1,2,4-oxadiazol-5-yl)-pyrazol-1-yl]-N,N-dimethyl-acetamide] | 0.61 | 0.083
23 | Nc1ncc(-c2ccc(C3(c4noc(-c5cnc(N6CCNCC6)cn5)n4)CCC3)cn2)cn1 [Example 60, 5-[5-(1-{5-[5-(piperazin-1-yl)pyrazin-2-yl]-1,2,4-oxadiazol-3-yl}cyclobutyl)pyridin-2-yl]pyrimidin-2-amine] | 0.15 | 0.0079
24 | Nc1ncc(-c2ccc(C3(c4noc(-c5ccc(N6CCNCC6)cc5)n4)CCC3)cn2)cn1 [Example 62, 5-[5-(1-{5-[4-(piperazin-1-yl)phenyl]-1,2,4-oxadiazol-3-yl}cyclobutyl)pyridin-2-yl]pyrimidin-2-amine] | 0.072 | 0.0026
25 | CC(C)(C(=O)O)n1cc(-c2nc(C3(c4ccc(-c5cnc(N)nc5)nc4)CCC3)no2)cn1 [Example 65, 2-[4-(3-{1-[6-(2-aminopyrimidin-5-yl)pyridin-3-yl]cyclobutyl}-1,2,4-oxadiazol-5-yl)-1H-pyrazol-1-yl]-2-methylpropanoic acid] | > 5 | 0.59
26 | Nc1ncc(-c2ccc(C3(c4noc(-c5cnn(CC(F)(F)F)c5)n4)CCC3)cn2)cn1 [Example 69, 5-[5-(1-{5-[1-(2,2,2-trifluoroethyl)-1H-pyrazol-4-yl]-1,2,4-oxadiazol-3-yl}cyclobutyl)pyridin-2-yl]pyrimidin-2-amine] | 0.17 | 0.0076
27 | CS(=O)(=O)Cn1cc(-c2nc(C3(c4ccc(-c5cnc(N)nc5)nc4)CCC3)no2)cn1 [Example 71, 5-{5-[1-(5-{1-[(methylsulfonyl)methyl]-1H-pyrazol-4-yl}-1,2,4-oxadiazol-3-yl)cyclobutyl]pyridin-2-yl}pyrimidin-2-amine] | 0.39 | 0.058
